Measurements reported in paper PMC12135943, “Beyond Barriers, Big Crystallization Hurdles: Atropisomerism in Beyond Rule of Five Compounds Explored by Computational and NMR Studies” (Molecular Pharmaceutics, 2025).
Converted amounts (≈) assume the structure as drawn. Where two headings read alike, the source gives them in different places.

Assays:
Assay type in all cases: physicochemical
[1] = Approximate solvent solubility (ASS); conditions: for solubility: organic solvents and solvent systems, 40 °C, organic solvent or mixture, thermodynamic from solid, stirring at 40 °C
Procedure: The approximate solubility of both compounds was determined in various organic solvents and solvent systems with a range of properties, including protic, aprotic, polar, and nonpolar solvents. Solubility tests were conducted under stirring at 40 °C, with concentrations ranging from 400 to 5 mg/mL. Solvents in which the solubility was below 5 mg/mL were classified as antisolvents. […]
Experimental procedures ACBI1:
Approximate solvent solubility (ASS):
Approximately 20.00 mg were weighed in HPLC vials, and a magnetic stirrer bar was inserted. Water bath temperature was set at 40 °C, and the initial 25 μL of the appropriate solvent was added into the vial. Stirring was initiated and the slurries were brought up to the desired set temperature. Observations were recorded and the next addition was performed according to the Table S1. The samples were stirred at 40 °C overnight, cooled down to ambient conditions and observations were recorded after 24 h.

[2] = Variable temperature NMR rotational barrier calculation (modified Eyring equation); conditions: for rotational energy barrier size: conclusion of NMR experiments
Procedure: This equation allows quick evaluation of the rotational energy barrier as follows: ΔG^‡=RTcoal[22.96+ln(Tcoal/δν)] where R is the universal gas constant [J/mol·K], T coal is the coalescence temperature [K], and δν is the difference of the Larmor frequencies in [Hz] for the two observed signals for the rotameric pair. The energy calculated using this equation is given in J/mol, which is then converted into kcal/mol.
^1H NMR spectra were recorded in a suitable deuterated solvent using a Bruker Avance IIIHD NMR spectrometer with a working base frequency of 400 MHz, equipped with a helium cryogenically cooled ^1H/^13C /^15N TCI probehead. The temperature limits of the probehead are from −40 °C up to 150 °C. The ^1H NMR experiments are recorded at a proton resonance frequency of 400.13 MHz, and 100.61 MHz was used for the ^13C frequency. The temperature is regulated using a Bruker Smart Variable temperature unit and calibrated using NMR-thermometer sample calibration. The assignment of the proton and carbon signals is performed using ^1H and ^13C NMR experiments, such as 1D ^1H, 1D ^13C, and 2D experiments: ^1H–^1H COSY, ^1H–^1H ROESY, ^1H–^13C HSQC, and ^1H–^13C HMBC. The chemical shifts (δH and δC) are reported in parts per million referenced to the 0.01% of nondeuterated signal of the deuterated solvent in the proton-based experiments and to the signal of the fully deuterated solvent signal in the carbon dimensions.
The evaluation of the energy barrier for the single bond rotation by experiment serves as key information for the crystallization properties of the bRo5-like molecules. Single one-dimensional proton measurements at various temperatures in 10 K steps allow the assessment of the coalescence temperature and the calculation of the rotational barrier energy, as described below. Both model compounds, ACBI1 and BI201335, show a clearly observable doubled signal set for some of the signals in the NMR spectra at 303 K. This could be attributed to presence of rotamers and/or diastereoisomers, as shown in Figure and Figure for ACBI1 and Figure and Figure for BI201335. The discernment of whether the multiple of signal sets is observed due to a slow convergence between two or more forms or the presence of diastereoisomers is most easily accessed by performing a two-dimensional proton ROESY experiment. […] At this temperature, the exchange between the proton signals could be clearly observed by the presence of cross peaks with the same phase as the diagonal peaks. The Nuclear Overhauser Enhancement (NOE) proximity cross peaks for small molecules have an antidiagonal phase. This serves as proof for the presence of rotamers with rotational barrier that could not be overcome at 303 K and therefore no exchange cross peaks are measured. […] In contrast to the ACBI1, in the ROESY spectrum at 303 K for BI201335 the exchange cross peaks are measurable.
The variable temperature NMR experiments were performed in the temperature range from 303 to 393 K with a 10 K step in between the experiments. In the case of BI201335 there are two rotameric signal pairs for which an attempt to calculate the rotational barrier could be performed. […] An estimation of the potential rotational barrier nevertheless allows an approximation within a range of energy barriers to be calculated: if the coalescence temperature was 393 K, the rotational barrier for this signal pair would be 18.8 kcal/mol. […] At the last measured point of 393 K (clearly below the experimental coalescence temperature), the rotational barrier would be 19.4 kcal/mol. At 423 K the calculated energy barrier would be 20.9 kcal/mol, and at 453 K it would be 22.4 kcal/mol. Based on the lack of exchange signals in the ROESY spectra at lower temperatures and the shape of the signals at 393 K, a coalescence temperature around 450 K seems most plausible. Thus, the rotational barrier for ACBI1 is estimated as 22.4 kcal/mol, with an error range of about 1–1.5 kcal/mol.

[3] = Dynamical vapor sorption (DVS); conditions: crystalline solvent-free form; 0-90% RH
Procedure: Dynamical vapor sorption data were recorded on a DVS intrinsic system from surface measurement systems (SMS) under a N2 atmosphere. Water sorption/desorption isotherms were recorded from 0% to 90% RH followed by an additional run from 90% to 0% RH in equal steps of 10% RH.

[4] = solvents in which the compound was soluble, read-out: approximate solubility in organic solvents

| SMILES | hydrophobicity ([1]; from solvent solubility test (Table S1)) | solubility ([1]; a few solvents classified as potential antisolvents, read-out: approximate solubility in antisolvents) | solubility [1, 4] | rotational barrier ([2]; calculated for 393 K, clearly below the coalescence temperature) | calculated energy barrier ([2]; calculated for 423 K) | calculated energy barrier ([2]; calculated for 453 K) | rotational energy barrier size [2] | rotational barrier (estimated) ([2]; error range of about 1–1.5 kcal/mol) | coalescence temperature (most plausible) ([2]; not reached at 393 K, estimated from signal shape and ROESY) | hygroscopicity (DVS isotherm plot) [3] | coalescence temperature ([2]; signal pair 4.46 and 4.76 ppm at 303 K) | rotational barrier ([2]; signal pair 4.46 and 4.76 ppm, coalescence temperature 393 K) | rotational energy barrier ([2]; signal pair 4.62 and 4.95 ppm, estimated coalescence temperature 403 K) | rotational barrier ([2]; signal pair 4.62 and 4.95 ppm, if the coalescence temperature was 393 K (not reached)) | coalescence temperature (estimated) ([2]; signal pair 4.62 and 4.95 ppm, not converged at 393 K) |
| --- | --- | --- | --- | --- | --- | --- | --- | --- | --- | --- | --- | --- | --- | --- | --- |
| Cc1ncsc1-c1ccc(CNC(=O)C2CC(O)CN2C(=O)C(NC(=O)C2(F)CC2)C(C)(C)C)c(OCCOc2ccc(CN3CCN(c4cc(-c5ccccc5O)nnc4N)CC3)cc2)c1 (centres unmarked) [ACBI1] | hydrophobic | < 5 mg/mL | 50 to 400 mg/mL (≈ 53.4 to 427 mM) | 19.4 kcal/mol | 20.9 kcal/mol | 22.4 kcal/mol | above 20 kcal/mol | 22.4 kcal/mol | around 450 K | – | – | – | – | – | – |
| C=C[C@@H]1C[C@]1(NC(=O)[C@@H]1C[C@@H](Oc2cc(-c3csc(NC(=O)C(C)C)n3)nc3c(Br)c(OC)ccc23)CN1C(=O)[C@@H](NC(=O)OC1CCCC1)C(C)(C)C)C(=O)O [BI201335] | – | – | 75 to 400 mg/mL (≈ 86.2 to 460 mM) | – | – | – | below 20 kcal/mol | – | – | slight hygroscopicity | 393 K | 18.9 kcal/mol | 19.3 kcal/mol | 18.8 kcal/mol | around 403 K |
